#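 Step 1: Grow cells in 96-well plates. Step 2: Expose to compound for 48 hours at 5 concentrations. Step 3: Interpolate endpoints linearly; if unreached, use highest concentration. At the GI50, growth is halved.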 Activity calls are given as the source filed them. Rule as the data show it: active = GI50 up to about 1.1 µM and inactive = higher.
# How the values were obtained:
# Test in all cases: DTP human tumour cell line panel, 48 h
# 786-0 = tested on: 786-0
# HL-60 = tested on: HL-60
# OVCAR-4 = tested on: OVCAR-4
# NCI-H460 = tested on: NCI-H460
# SF-268 = tested on: SF-268
# OVCAR-8 = tested on: OVCAR-8
# SNB-19 = tested on: SNB-19
# SK-MEL-2 = tested on: SK-MEL-2
# RPMI-8226 = tested on: RPMI-8226
# SN12C = tested on: SN12C
# MDA-N = tested on: MDA-N
# SF-539 = tested on: SF-539
# NCI/ADR-RES = tested on: NCI/ADR-RES
# K562 = tested on: K562
# HT-29 = tested on: HT-29
# SNB-75 = tested on: SNB-75
# A549 = tested on: A549
# Malme-3M = tested on: Malme-3M
# U-251 = tested on: U-251
# PC-3 = tested on: PC-3
# HCC 2998 = tested on: HCC 2998
# Hs-578T = tested on: Hs-578T
# NCI-H522 = tested on: NCI-H522
# NCI-H23 = tested on: NCI-H23
# SK-MEL-28 = tested on: SK-MEL-28
# SW-620 = tested on: SW-620
# OVCAR-5 = tested on: OVCAR-5
# UO-31 = tested on: UO-31
# RXF 393 = tested on: RXF 393
# EKVX = tested on: EKVX
# HCT-15 = tested on: HCT-15
# BT-549 = tested on: BT-549
# UACC-257 = tested on: UACC-257
# IGROV-1 = tested on: IGROV-1
# SK-MEL-5 = tested on: SK-MEL-5
# HOP-92 = tested on: HOP-92
# ACHN = tested on: ACHN
# MDA-MB-231 = tested on: MDA-MB-231
# DU-145 = tested on: DU-145
# MCF7 = tested on: MCF7
# KM12 = tested on: KM12
# T47D = tested on: T47D
# SK-OV-3 = tested on: SK-OV-3
# A498 = tested on: A498
# MOLT-4 = tested on: MOLT-4
# TK-10 = tested on: TK-10
# UACC-62 = tested on: UACC-62
# HOP-62 = tested on: HOP-62
# HCT-116 = tested on: HCT-116
# CCRF-CEM = tested on: CCRF-CEM
# OVCAR-3 = tested on: OVCAR-3
# LOX IMVI = tested on: LOX IMVI
# MDA-MB-435 = tested on: MDA-MB-435
# SF-295 = tested on: SF-295
# CAKI-1 = tested on: CAKI-1
# M14 = tested on: M14
# COLO 205 = tested on: COLO 205
# NCI-H226 = tested on: NCI-H226
smiles,measurement,setting,value
O=C(O)/C(=C/c1ccccc1)c1ccccc1,GI50,786-0,> 100 µM (inactive)
same,GI50,HL-60,> 100 µM (inactive)
same,GI50,OVCAR-4,> 100 µM (inactive)
same,GI50,NCI-H460,> 100 µM (inactive)
same,GI50,SF-268,> 100 µM (inactive)
same,GI50,OVCAR-8,> 100 µM (inactive)
same,GI50,SNB-19,> 100 µM (inactive)
same,GI50,SK-MEL-2,> 100 µM (inactive)
same,GI50,RPMI-8226,> 100 µM (inactive)
same,GI50,SN12C,> 100 µM (inactive)
same,GI50,MDA-N,> 100 µM (inactive)
same,GI50,SF-539,> 100 µM (inactive)
same,GI50,NCI/ADR-RES,> 100 µM (inactive)
same,GI50,K562,> 100 µM (inactive)
same,GI50,HT-29,> 100 µM (inactive)
same,GI50,SNB-75,> 100 µM (inactive)
same,GI50,A549,> 100 µM (inactive)
same,GI50,Malme-3M,> 100 µM (inactive)
same,GI50,U-251,> 100 µM (inactive)
same,GI50,PC-3,> 100 µM (inactive)
same,GI50,HCC 2998,> 100 µM (inactive)
same,GI50,Hs-578T,> 100 µM (inactive)
same,GI50,NCI-H522,> 100 µM (inactive)
same,GI50,NCI-H23,> 100 µM (inactive)
same,GI50,SK-MEL-28,> 100 µM (inactive)
same,GI50,SW-620,> 100 µM (inactive)
same,GI50,OVCAR-5,> 100 µM (inactive)
same,GI50,UO-31,> 100 µM (inactive)
same,GI50,RXF 393,> 100 µM (inactive)
same,GI50,EKVX,> 100 µM (inactive)
same,GI50,HCT-15,> 100 µM
same,GI50,BT-549,> 100 µM (inactive)
same,GI50,UACC-257,> 100 µM (inactive)
same,GI50,IGROV-1,> 100 µM (inactive)
same,GI50,SK-MEL-5,> 100 µM (inactive)
same,GI50,HOP-92,46.6 µM (inactive)
same,GI50,ACHN,> 100 µM (inactive)
same,GI50,MDA-MB-231,> 100 µM (inactive)
same,GI50,DU-145,> 100 µM (inactive)
same,GI50,MCF7,> 100 µM (inactive)
same,GI50,KM12,> 100 µM (inactive)
same,GI50,T47D,> 100 µM (inactive)
same,GI50,SK-OV-3,> 100 µM (inactive)
same,GI50,A498,> 100 µM (inactive)
same,GI50,MOLT-4,> 100 µM (inactive)
same,GI50,TK-10,> 100 µM (inactive)
same,GI50,UACC-62,> 100 µM (inactive)
same,GI50,HOP-62,> 100 µM (inactive)
same,GI50,HCT-116,> 100 µM (inactive)
same,GI50,CCRF-CEM,> 100 µM (inactive)
same,GI50,OVCAR-3,> 100 µM (inactive)
same,GI50,LOX IMVI,> 100 µM (inactive)
same,GI50,MDA-MB-435,> 100 µM (inactive)
same,GI50,SF-295,> 100 µM (inactive)
same,GI50,CAKI-1,> 100 µM (inactive)
same,GI50,M14,> 100 µM (inactive)
CCCCSC1=N/C(=C\c2ccc(N(C)C)cc2)C(Cl)=N1,GI50,786-0,> 100 µM (inactive)
same,GI50,OVCAR-4,> 100 µM (inactive)
same,GI50,NCI-H460,> 100 µM (inactive)
same,GI50,SF-268,> 100 µM (inactive)
same,GI50,OVCAR-8,> 100 µM (inactive)
same,GI50,SNB-19,> 100 µM (inactive)
same,GI50,SK-MEL-2,> 100 µM (inactive)
same,GI50,RPMI-8226,> 100 µM (inactive)
same,GI50,SN12C,> 100 µM (inactive)
same,GI50,MDA-N,> 100 µM (inactive)
same,GI50,SF-539,> 100 µM (inactive)
same,GI50,NCI/ADR-RES,> 100 µM (inactive)
same,GI50,K562,> 100 µM (inactive)
same,GI50,HT-29,> 100 µM (inactive)
same,GI50,SNB-75,> 100 µM (inactive)
same,GI50,A549,> 100 µM (inactive)
same,GI50,Malme-3M,> 100 µM (inactive)
same,GI50,COLO 205,> 100 µM (inactive)
same,GI50,U-251,> 100 µM (inactive)
same,GI50,PC-3,76.6 µM (inactive)
same,GI50,HCC 2998,> 100 µM (inactive)
same,GI50,Hs-578T,> 100 µM (inactive)
same,GI50,NCI-H522,> 100 µM (inactive)
same,GI50,NCI-H23,> 100 µM (inactive)
same,GI50,SK-MEL-28,> 100 µM (inactive)
same,GI50,SW-620,> 100 µM (inactive)
same,GI50,OVCAR-5,> 100 µM (inactive)
same,GI50,UO-31,> 100 µM (inactive)
same,GI50,RXF 393,> 100 µM (inactive)
same,GI50,EKVX,89.5 µM (inactive)
same,GI50,HCT-15,> 100 µM
same,GI50,BT-549,> 100 µM (inactive)
same,GI50,UACC-257,> 100 µM (inactive)
same,GI50,IGROV-1,> 100 µM (inactive)
same,GI50,HOP-92,> 100 µM (inactive)
same,GI50,ACHN,> 100 µM (inactive)
same,GI50,MDA-MB-231,> 100 µM (inactive)
same,GI50,DU-145,> 100 µM (inactive)
same,GI50,MCF7,> 100 µM (inactive)
same,GI50,KM12,> 100 µM (inactive)
same,GI50,T47D,> 100 µM (inactive)
same,GI50,SK-OV-3,> 100 µM (inactive)
same,GI50,A498,78.2 µM (inactive)
same,GI50,MOLT-4,> 100 µM (inactive)
same,GI50,TK-10,> 100 µM (inactive)
same,GI50,UACC-62,94.4 µM (inactive)
same,GI50,NCI-H226,> 100 µM (inactive)
same,GI50,HOP-62,> 100 µM (inactive)
same,GI50,HCT-116,> 100 µM (inactive)
same,GI50,OVCAR-3,> 100 µM (inactive)
same,GI50,LOX IMVI,> 100 µM (inactive)
same,GI50,MDA-MB-435,> 100 µM (inactive)
same,GI50,SF-295,> 100 µM (inactive)
same,GI50,CAKI-1,> 100 µM (inactive)
same,GI50,M14,> 100 µM (inactive)

# From ChEMBL document CHEMBL1201862, “PubChem BioAssay data set” (2004)
